Reference: patent US11738022B2, “Methods for inducing pupil dilation” (THE REGENTS OF THE UNIVERSITY OF COLORADO, A BODY CORPORATE, priority 2017, dated 2023)

Legend:
pupil = test: Pupil dilation measured with Neuroptics pupillometer after α-2 agonist pre-treatment and/or phenylephrine; type: in vivo, human
Description: Dilation medication used was Phenylephrine hydrochloride 10% (Akorn, Inc). Pupillometer used was a Neuroptics DP-2000 Binocular Pupillometer).
Dilation using phenylephrine hydrochloride 10% was conducted in both eyes of the test subject to use as a control against the other compounds being tested.
After this, dilation using phenylephrine hydrochloride 2.5% or phenylephrine hydrochloride 10% was conducted to investigate the effects of the compound on pupil dilation.
Apracionidine 0.5% was administered in the right eye of the test subject three (3) times a day for 4 days. After this, dilation using phenylephrine hydrochloride 10% was conducted to investigate the effects of the compound on pupil dilation.
After this, dilation using phenylephrine hydrochloride 10% was conducted to investigate the effects of the compound on pupil dilation.
A washout period of multiple months was undertaken in between each experiment.
Pupil measurements were obtained using a Neuroptics pupillometer. Parameters were as follows: Scotopic conditions for 1 second, followed by photopic conditions for 4 seconds (1258.925 lux), followed by scotopic conditions for 10 seconds. This allowed for investigation of scotopic pupil size, photopic pupil size, and scotopic pupil size recovery after the light stimulus concluded.
The pupils of the subject's pretreated right eye and untreated control left eye were then measured under both scotopic and photopic conditions for baseline measurements (FIG. 6A). Photopic conditions consisted of a 4 second window where a light was shining in both eyes simultaneously. […]
The experiment was repeated at a higher dosage wherein the subject was administered a second ophthalmic formulation containing 10% phenylephrine to both eyes. 30 minutes after instillation of 10% phenylephrine, the pupils of the subject were then measured under both scotopic and photopic conditions (FIG. 6C). […] Because the area of a circle is dependent on the radius squared (area of a circle=πr^2), the increase in area that is created from a increasing the pupil dilation size is not linear.
The results were then compared.

α receptors (α2:α1) = settings: affinity ratio; cited from earlier work
[1] = after pre-treatment of right eye only, 3 times a day for 4 days, before phenylephrine
[2] = after pre-treatment of right eye only, 3 times a day for 4 days, before phenylephrine, left eye not treated
[3] = dilation pre and post treatment with α 2 agonist: treated eye vs control measurements of same eye
[4] = non-treated eye dilation compared to treated eye dilation
[5] = photopic conditions (1258.925 lux) after dilation with phenylephrine 10%
[6] = photopic conditions (1258.925 lux) after dilation with phenylephrine 10%, eye without pre-treatment
[7] = right eye pre-treated 3 times a day for 4 days, then phenylephrine 10% both eyes
[8] = right eye pre-treated 3 times a day for 4 days, then phenylephrine 10% both eyes, left eye not pre-treated

In the case of Nc1cc(Cl)c(N=C2NCCN2)c(Cl)c1 [Apraclonidine, apraclonidine], the “effect of pre-treatment on dilation” value (pupil; after dilation with phenylephrine hydrochloride 10%) was “hindered dilation”, the “CH LStim Ave” value (pupil; [1]) was 62% and the “CH RPupil Ave” value (pupil; [1]) was 61%. For the same compound, the “CH RStim Ave” value (pupil; [1]) was 62%, the “CH Right” value (pupil; [1]) was 61% and the “CLAT LStim Ave” value (pupil; [1]) was 0.21 s. For the same compound, the “CLAT RPupil Ave” value (pupil; [1]) was 0.21 s, the “CLAT RStim Ave” value (pupil; [1]) was 0.21 s and the “CLAT Right” value (pupil; [1]) was 0.21 s. For the same compound, the “DELTA LStim Ave” value (pupil; [1]) was 4.25 mm, the “DELTA RPupil Ave” value (pupil; [1]) was 4.20 mm and the “DELTA RStim Ave” value (pupil; [1]) was 4.25 mm. For the same compound, the “DV LStim Ave” value (pupil; [1]) was 1.08 mm/s, the “DV RPupil Ave” value (pupil; [1]) was 1.19 mm/s and the “DV RStim Ave” value (pupil; [1]) was 1.08 mm/s. The “DV Right” value (pupil; [1]) was 1.19 mm/s, the “MCV LStim Ave” value (pupil; [1]) was 5.93 mm/s and the “MCV RPupil Ave” value (pupil; [1]) was 6.01 mm/s. The “MCV RStim Ave” value (pupil; [1]) was 5.93 mm/s, the “Max LStim Ave” value (pupil; [1]) was 6.87 mm and the “Max RStim Ave” value (pupil; [1]) was 6.87 mm. For the same compound, the “Max Right” value (pupil; [1]) was 6.91 mm, the “Min LStim Ave” value (pupil; [1]) was 2.62 mm and the “Min RPupil Ave” value (pupil; [1]) was 2.71 mm. For the same compound, the “Min RStim Ave” value (pupil; [1]) was 2.62 mm, the “Min Right” value (pupil; [1]) was 2.71 mm and the “CH LPupil Ave” value (pupil; [2]) was 63%. The “CH Left” value (pupil; [2]) was 63%, the “CLAT LPupil Ave” value (pupil; [2]) was 0.21 s and the “CLAT Left” value (pupil; [2]) was 0.21 s. The “DELTA Left” value (pupil; [2]) was 4.28 mm, the “DV Left” value (pupil; [2]) was 0.97 mm/s and the “MCV Left” value (pupil; [2]) was 5.85 mm/s. The “Max Left” value (pupil; [2]) was 6.82 mm, the “Min Left” value (pupil; [2]) was 2.54 mm and the “Pupil size change (%)” value (pupil; [3]) was −17.83%. The “Surgical work area change (%)” value (pupil; [3]) was −32.48%, the “Pupil size change (%)” value (pupil; [4]) was −40.4% and the “Surgical work area (%)” value (pupil; [4]) was −64.48%. For the same compound, the “Pupil size, Treated eye” value (pupil; [5]) was 2.95 mm, the “Surgical Work area, Treated eye” value (pupil; [5]) was 6.831 mm^2 and the “Pupil size, Non-treated eye” value (pupil; [6]) was 4.95 mm. For the same compound, the “Surgical Work area, Non-treated eye” value (pupil; [6]) was 19.23 mm^2, the “CH LStim Ave” value (pupil; [7]) was 54% and the “CH RPupil Ave” value (pupil; [7]) was 62%. The “CH RStim Ave” value (pupil; [7]) was 54%, the “CH Right” value (pupil; [7]) was 62% and the “CLAT LStim Ave” value (pupil; [7]) was 0.22 s. The “CLAT RPupil Ave” value (pupil; [7]) was 0.21 s, the “CLAT RStim Ave” value (pupil; [7]) was 0.22 s and the “CLAT Right” value (pupil; [7]) was 0.21 s. For the same compound, the “DELTA LStim Ave” value (pupil; [7]) was 4.59 mm, the “DELTA RPupil Ave” value (pupil; [7]) was 4.88 mm and the “DELTA RStim Ave” value (pupil; [7]) was 4.59 mm. The “DV LStim Ave” value (pupil; [7]) was 1.21 mm/s, the “DV RPupil Ave” value (pupil; [7]) was 1.18 mm/s and the “DV RStim Ave” value (pupil; [7]) was 1.21 mm/s. For the same compound, the “DV Right” value (pupil; [7]) was 1.18 mm/s, the “MCV LStim Ave” value (pupil; [7]) was 3.80 mm/s and the “MCV RPupil Ave” value (pupil; [7]) was 5.03 mm/s. For the same compound, the “MCV RStim Ave” value (pupil; [7]) was 3.80 mm/s, the “Max LStim Ave” value (pupil; [7]) was 8.54 mm and the “Max RStim Ave” value (pupil; [7]) was 8.54 mm. For the same compound, the “Max Right” value (pupil; [7]) was 7.83 mm, the “Min LStim Ave” value (pupil; [7]) was 3.95 mm and the “Min RPupil Ave” value (pupil; [7]) was 2.95 mm. The “Min RStim Ave” value (pupil; [7]) was 3.95 mm, the “Min Right” value (pupil; [7]) was 2.95 mm and the “CH LPupil Ave” value (pupil; [8]) was 46%. For the same compound, the “CH Left” value (pupil; [8]) was 46%, the “CLAT LPupil Ave” value (pupil; [8]) was 0.23 s and the “CLAT Left” value (pupil; [8]) was 0.23 s. For the same compound, the “DELTA Left” value (pupil; [8]) was 4.30 mm, the “DV Left” value (pupil; [8]) was 1.24 mm/s and the “MCV Left” value (pupil; [8]) was 2.58 mm/s. For the same compound, the “Max Left” value (pupil; [8]) was 9.25 mm, the “Min Left” value (pupil; [8]) was 4.95 mm and the “α2:α1 affinity” value (α receptors (α2:α1)) was 150.
